# From the supplement of paper PMC10307832
# How the values were obtained:
# Test in all cases: relative viability (nuclei count vs DMSO), 5 days (fraction); higher = more cells survive
# XMD13-2 + Alpelisib = compound: C1CC1C(=O)NC2=NNC3=C2C=CC(=C3)C4=CC(=CC=C4)C(=O)NC5CC5 [XMD13-2] + Cc1nc(NC(=O)N2CCC[C@H]2C(N)=O)sc1-c1ccnc(C(C)(C)C(F)(F)F)c1 [Alpelisib] (partner 2 µM)
# In short: (§1)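 Each reported value is a median over duplicate plates. It expresses relative viability: treated-well nuclei count divided by vehicle-well nuclei count. Lung cancer cell lines in 1536-well plates were dosed by pin tool a day after seeding, alone with one drug or with a fixed anchor-drug dose plus five library-drug doses (not always all listed) in √10 steps, and nuclei were counted after 5 days.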
# Dasatinib + OSI-027 = compound: Cc1nc(Nc2ncc(C(=O)Nc3c(C)cccc3Cl)s2)cc(N2CCN(CCO)CC2)n1 [Dasatinib] + COc1cccc2cc(-c3nc([C@H]4CC[C@H](C(=O)O)CC4)n4ncnc(N)c34)[nH]c12 [OSI-027] (partner 0.5 µM)
# In short: as §1
# ALW-II-49-7 + Decitabine = compound: Cc1ccc(C(=O)Nc2cccc(C(F)(F)F)c2)cc1Nc1cncc(C(N)=O)c1 [ALW-II-49-7] + Nc1ncn([C@H]2C[C@H](O)[C@@H](CO)O2)c(=O)n1 [Decitabine] (partner 2 µM)
# In short: as §1
# XMD13-2 + OSI-027 = compound: C1CC1C(=O)NC2=NNC3=C2C=CC(=C3)C4=CC(=CC=C4)C(=O)NC5CC5 [XMD13-2] + COc1cccc2cc(-c3nc([C@H]4CC[C@H](C(=O)O)CC4)n4ncnc(N)c34)[nH]c12 [OSI-027] (partner 0.5 µM)
# In short: as §1
cell line,measurement,setting,value
HCC-366,relative viability,XMD13-2 + Alpelisib; first compound 0.05 µM,0.61
same,relative viability,XMD13-2 + Alpelisib; first compound 0.1581 µM,0.31
same,relative viability,XMD13-2 + Alpelisib; first compound 0.5 µM,0.334
same,relative viability,XMD13-2 + Alpelisib; first compound 1.581 µM,0.446
same,relative viability,XMD13-2 + Alpelisib; first compound 5 µM,0.443
same,relative viability,Dasatinib + OSI-027; first compound 0.005 µM,0.662
same,relative viability,Dasatinib + OSI-027; first compound 0.01581 µM,0.338
same,relative viability,Dasatinib + OSI-027; first compound 0.05 µM,0.365
same,relative viability,Dasatinib + OSI-027; first compound 0.1581 µM,0.375
same,relative viability,Dasatinib + OSI-027; first compound 0.5 µM,0.243
same,relative viability,ALW-II-49-7 + Decitabine; first compound 0.08 µM,0.354
same,relative viability,ALW-II-49-7 + Decitabine; first compound 0.253 µM,0.371
same,relative viability,ALW-II-49-7 + Decitabine; first compound 0.8 µM,0.374
same,relative viability,ALW-II-49-7 + Decitabine; first compound 2.53 µM,0.385
same,relative viability,ALW-II-49-7 + Decitabine; first compound 8 µM,0.307
same,relative viability,XMD13-2 + OSI-027; first compound 0.05 µM,1.02
same,relative viability,XMD13-2 + OSI-027; first compound 0.1581 µM,0.598
same,relative viability,XMD13-2 + OSI-027; first compound 0.5 µM,1.15
same,relative viability,XMD13-2 + OSI-027; first compound 1.581 µM,0.888
same,relative viability,XMD13-2 + OSI-027; first compound 5 µM,0.983
NCI-H2405,relative viability,XMD13-2 + Alpelisib; first compound 0.05 µM,0.935
same,relative viability,XMD13-2 + Alpelisib; first compound 0.1581 µM,0.875
same,relative viability,XMD13-2 + Alpelisib; first compound 0.5 µM,0.807
same,relative viability,XMD13-2 + Alpelisib; first compound 1.581 µM,0.81
same,relative viability,XMD13-2 + Alpelisib; first compound 5 µM,0.863
same,relative viability,Dasatinib + OSI-027; first compound 0.005 µM,0.581
same,relative viability,Dasatinib + OSI-027; first compound 0.01581 µM,0.418
same,relative viability,Dasatinib + OSI-027; first compound 0.05 µM,0.353
same,relative viability,Dasatinib + OSI-027; first compound 0.1581 µM,0.245
same,relative viability,Dasatinib + OSI-027; first compound 0.5 µM,0.161
same,relative viability,ALW-II-49-7 + Decitabine; first compound 0.08 µM,0.699
same,relative viability,ALW-II-49-7 + Decitabine; first compound 0.253 µM,0.751
same,relative viability,ALW-II-49-7 + Decitabine; first compound 0.8 µM,0.75
same,relative viability,ALW-II-49-7 + Decitabine; first compound 2.53 µM,0.685
same,relative viability,ALW-II-49-7 + Decitabine; first compound 8 µM,0.722
same,relative viability,XMD13-2 + OSI-027; first compound 0.05 µM,0.632
same,relative viability,XMD13-2 + OSI-027; first compound 0.1581 µM,0.543
same,relative viability,XMD13-2 + OSI-027; first compound 0.5 µM,0.587
same,relative viability,XMD13-2 + OSI-027; first compound 1.581 µM,0.676
same,relative viability,XMD13-2 + OSI-027; first compound 5 µM,0.598
Calu-6,relative viability,XMD13-2 + Alpelisib; first compound 0.05 µM,1.02
same,relative viability,XMD13-2 + Alpelisib; first compound 0.1581 µM,0.948
same,relative viability,XMD13-2 + Alpelisib; first compound 0.5 µM,1.04
same,relative viability,XMD13-2 + Alpelisib; first compound 1.581 µM,0.923
same,relative viability,XMD13-2 + Alpelisib; first compound 5 µM,0.757
201T,relative viability,XMD13-2 + Alpelisib; first compound 0.05 µM,1.07
same,relative viability,XMD13-2 + Alpelisib; first compound 0.1581 µM,1.03
same,relative viability,XMD13-2 + Alpelisib; first compound 0.5 µM,0.945
same,relative viability,XMD13-2 + Alpelisib; first compound 1.581 µM,1
same,relative viability,XMD13-2 + Alpelisib; first compound 5 µM,1.07
same,relative viability,Dasatinib + OSI-027; first compound 0.005 µM,0.662
same,relative viability,Dasatinib + OSI-027; first compound 0.01581 µM,0.567
same,relative viability,Dasatinib + OSI-027; first compound 0.05 µM,0.597
same,relative viability,Dasatinib + OSI-027; first compound 0.1581 µM,0.386
same,relative viability,Dasatinib + OSI-027; first compound 0.5 µM,0.211
same,relative viability,ALW-II-49-7 + Decitabine; first compound 0.08 µM,0.832
same,relative viability,ALW-II-49-7 + Decitabine; first compound 0.253 µM,0.84
same,relative viability,ALW-II-49-7 + Decitabine; first compound 0.8 µM,0.872
same,relative viability,ALW-II-49-7 + Decitabine; first compound 2.53 µM,0.846
same,relative viability,ALW-II-49-7 + Decitabine; first compound 8 µM,0.904
same,relative viability,XMD13-2 + OSI-027; first compound 0.05 µM,0.95
same,relative viability,XMD13-2 + OSI-027; first compound 0.1581 µM,0.731
same,relative viability,XMD13-2 + OSI-027; first compound 0.5 µM,0.854
same,relative viability,XMD13-2 + OSI-027; first compound 1.581 µM,0.701
same,relative viability,XMD13-2 + OSI-027; first compound 5 µM,0.723
CAL-12T,relative viability,XMD13-2 + Alpelisib; first compound 0.05 µM,1.31
same,relative viability,XMD13-2 + Alpelisib; first compound 0.1581 µM,1.18
same,relative viability,XMD13-2 + Alpelisib; first compound 0.5 µM,1.24
same,relative viability,XMD13-2 + Alpelisib; first compound 1.581 µM,1.11
same,relative viability,XMD13-2 + Alpelisib; first compound 5 µM,1.4
same,relative viability,Dasatinib + OSI-027; first compound 0.005 µM,0.845
same,relative viability,Dasatinib + OSI-027; first compound 0.01581 µM,0.819
same,relative viability,Dasatinib + OSI-027; first compound 0.05 µM,0.846
same,relative viability,Dasatinib + OSI-027; first compound 0.1581 µM,0.375
same,relative viability,Dasatinib + OSI-027; first compound 0.5 µM,0.221
same,relative viability,XMD13-2 + OSI-027; first compound 0.05 µM,0.803
same,relative viability,XMD13-2 + OSI-027; first compound 0.1581 µM,0.585
same,relative viability,XMD13-2 + OSI-027; first compound 0.5 µM,0.549
same,relative viability,XMD13-2 + OSI-027; first compound 1.581 µM,0.426
same,relative viability,XMD13-2 + OSI-027; first compound 5 µM,0.577
HCC-44,relative viability,XMD13-2 + Alpelisib; first compound 0.05 µM,0.995
same,relative viability,XMD13-2 + Alpelisib; first compound 0.1581 µM,0.843
same,relative viability,XMD13-2 + Alpelisib; first compound 0.5 µM,0.934
same,relative viability,XMD13-2 + Alpelisib; first compound 1.581 µM,0.82
same,relative viability,XMD13-2 + Alpelisib; first compound 5 µM,0.745
same,relative viability,Dasatinib + OSI-027; first compound 0.005 µM,0.65
same,relative viability,Dasatinib + OSI-027; first compound 0.01581 µM,0.754
same,relative viability,Dasatinib + OSI-027; first compound 0.05 µM,0.466
same,relative viability,Dasatinib + OSI-027; first compound 0.1581 µM,0.337
same,relative viability,Dasatinib + OSI-027; first compound 0.5 µM,0.273
same,relative viability,ALW-II-49-7 + Decitabine; first compound 0.08 µM,0.971
same,relative viability,ALW-II-49-7 + Decitabine; first compound 0.253 µM,0.974
same,relative viability,ALW-II-49-7 + Decitabine; first compound 0.8 µM,0.945
same,relative viability,ALW-II-49-7 + Decitabine; first compound 2.53 µM,0.996
same,relative viability,ALW-II-49-7 + Decitabine; first compound 8 µM,0.913
same,relative viability,XMD13-2 + OSI-027; first compound 0.05 µM,0.565
same,relative viability,XMD13-2 + OSI-027; first compound 0.1581 µM,0.57
same,relative viability,XMD13-2 + OSI-027; first compound 0.5 µM,0.507
same,relative viability,XMD13-2 + OSI-027; first compound 1.581 µM,0.381
same,relative viability,XMD13-2 + OSI-027; first compound 5 µM,0.438
NCI-H358,relative viability,XMD13-2 + Alpelisib; first compound 0.05 µM,1.06
same,relative viability,XMD13-2 + Alpelisib; first compound 0.1581 µM,0.774
same,relative viability,XMD13-2 + Alpelisib; first compound 0.5 µM,0.843
same,relative viability,XMD13-2 + Alpelisib; first compound 1.581 µM,0.822
same,relative viability,XMD13-2 + Alpelisib; first compound 5 µM,0.529
same,relative viability,Dasatinib + OSI-027; first compound 0.005 µM,0.806
same,relative viability,Dasatinib + OSI-027; first compound 0.01581 µM,0.542
same,relative viability,Dasatinib + OSI-027; first compound 0.05 µM,0.439
same,relative viability,Dasatinib + OSI-027; first compound 0.1581 µM,0.149
same,relative viability,Dasatinib + OSI-027; first compound 0.5 µM,0.122
same,relative viability,ALW-II-49-7 + Decitabine; first compound 0.08 µM,0.19
same,relative viability,ALW-II-49-7 + Decitabine; first compound 0.253 µM,0.183
same,relative viability,ALW-II-49-7 + Decitabine; first compound 0.8 µM,0.22
same,relative viability,ALW-II-49-7 + Decitabine; first compound 2.53 µM,0.234
same,relative viability,ALW-II-49-7 + Decitabine; first compound 8 µM,0.232
same,relative viability,XMD13-2 + OSI-027; first compound 0.05 µM,0.97
same,relative viability,XMD13-2 + OSI-027; first compound 0.1581 µM,0.686
same,relative viability,XMD13-2 + OSI-027; first compound 0.5 µM,0.848
same,relative viability,XMD13-2 + OSI-027; first compound 1.581 µM,0.726
same,relative viability,XMD13-2 + OSI-027; first compound 5 µM,0.442
SW 900,relative viability,Dasatinib + OSI-027; first compound 0.005 µM,0.588
same,relative viability,Dasatinib + OSI-027; first compound 0.01581 µM,0.547
same,relative viability,Dasatinib + OSI-027; first compound 0.05 µM,0.481
same,relative viability,Dasatinib + OSI-027; first compound 0.1581 µM,0.311
same,relative viability,Dasatinib + OSI-027; first compound 0.5 µM,0.14
same,relative viability,ALW-II-49-7 + Decitabine; first compound 0.08 µM,0.506
same,relative viability,ALW-II-49-7 + Decitabine; first compound 0.253 µM,0.487
same,relative viability,ALW-II-49-7 + Decitabine; first compound 2.53 µM,0.552
same,relative viability,ALW-II-49-7 + Decitabine; first compound 8 µM,0.661
same,relative viability,XMD13-2 + OSI-027; first compound 0.05 µM,0.654
same,relative viability,XMD13-2 + OSI-027; first compound 0.1581 µM,0.707
same,relative viability,XMD13-2 + OSI-027; first compound 0.5 µM,0.686
same,relative viability,XMD13-2 + OSI-027; first compound 1.581 µM,0.457
same,relative viability,XMD13-2 + OSI-027; first compound 5 µM,0.635
NCI-H2087,relative viability,XMD13-2 + Alpelisib; first compound 0.05 µM,1.14
same,relative viability,XMD13-2 + Alpelisib; first compound 0.1581 µM,1.08
same,relative viability,XMD13-2 + Alpelisib; first compound 0.5 µM,1.13
same,relative viability,XMD13-2 + Alpelisib; first compound 1.581 µM,1.05
same,relative viability,XMD13-2 + Alpelisib; first compound 5 µM,1.03
same,relative viability,Dasatinib + OSI-027; first compound 0.005 µM,0.571
same,relative viability,Dasatinib + OSI-027; first compound 0.01581 µM,0.607
same,relative viability,Dasatinib + OSI-027; first compound 0.05 µM,0.697
same,relative viability,Dasatinib + OSI-027; first compound 0.1581 µM,0.531
same,relative viability,Dasatinib + OSI-027; first compound 0.5 µM,0.278
same,relative viability,ALW-II-49-7 + Decitabine; first compound 0.08 µM,0.244
same,relative viability,ALW-II-49-7 + Decitabine; first compound 0.253 µM,0.254
same,relative viability,ALW-II-49-7 + Decitabine; first compound 0.8 µM,0.212
same,relative viability,ALW-II-49-7 + Decitabine; first compound 2.53 µM,0.311
same,relative viability,ALW-II-49-7 + Decitabine; first compound 8 µM,0.203
same,relative viability,XMD13-2 + OSI-027; first compound 0.05 µM,0.716
same,relative viability,XMD13-2 + OSI-027; first compound 0.1581 µM,0.69
same,relative viability,XMD13-2 + OSI-027; first compound 0.5 µM,0.482
same,relative viability,XMD13-2 + OSI-027; first compound 1.581 µM,0.565
same,relative viability,XMD13-2 + OSI-027; first compound 5 µM,0.489
